We go through one molecule from patent US6495699B2, “Metalloproteinase inhibitors, pharmaceutical compositions containing them, and their use” (Agouron Pharmaceuticals Inc., priority 1996, dated 2002).

Series [1] can be described thus: Determination of inhibitor concentration in plasma after oral dosing. Particulars: Sprague-Dawley, rat plasma, dose 50 mg/kg, vehicle B (60% aq. propylene glycol). It is filed as in vivo, Sprague Dawley rats.
Series [2] concerns the target T1, human collagenase-3 (Coll3) (Homo sapiens, UniProt P45452).
T1 construct: the catalytic domain was liberated by treatment with 2 mM APMA at room temperature overnight; ubiquitin (N, cleaved yes); made in house; host or cells: E. coli
Nature of the series: Fluorometric MCA-peptide hydrolysis assay, collagenase-3 (Coll3). The note with it: apparent Ki; 10 μM MCA peptide substrate, 37° C., pH 7.5; read-out: Coll3 (Ki,app). It is filed as biochemical.

Series [3] has as its target T2, Human matrilysin (Matr) (Homo sapiens, UniProt P09237).
T2 construct: the catalytic domain was liberated by treatment with 2 mM APMA at 37° C. for 2 hours; ubiquitin (cleaved yes); made in house; host or cells: E. coli
T2 sequence (P09237 95-267): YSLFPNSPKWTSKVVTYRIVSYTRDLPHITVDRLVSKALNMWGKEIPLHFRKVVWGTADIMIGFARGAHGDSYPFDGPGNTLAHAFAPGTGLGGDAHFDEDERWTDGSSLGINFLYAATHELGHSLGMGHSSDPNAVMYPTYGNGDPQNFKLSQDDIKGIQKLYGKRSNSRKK
In words: Fluorometric MCA-peptide hydrolysis assay, matrilysin (Matr). It is filed as biochemical. The note with it: apparent Ki; 10 μM MCA peptide substrate, 37° C., pH 7.5; read-out: Matr (Ki,app). A digest of the protocol:
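Catalytic domain of E. coli-expressed human matrilysin assayed at 37° C, pH 7.5 Tricine buffer, 2% DMSO, with 10 μM MCA-Pro-Leu-Gly-Leu-DPA-Ala-Arg-NH2; fluorescence ex 328/em 393 nm over 60 min. Ki,app from steady-state rates fitted to competitive inhibition or Morrison tight-binding equation.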

Series [4] has as its target T3, catalytic domain of human stromelysin (Hsln) (Homo sapiens, UniProt P08254).
T3 construct: The catalytic domain of human stromelysin (Hsln) was obtained by expression and purification of a C-terminally truncated prostromelysin-1; made in house; host or cells: E. coli BL21
Nature of the series: Fluorometric MCA-peptide hydrolysis assay, stromelysin (Hsln). It is filed as biochemical. Particulars: apparent Ki; 10 μM MCA peptide substrate, 37° C., pH 7.5; read-out: Hsln (Ki,app). Put shortly: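 APMA-activated E. coli–expressed catalytic domain, with 10 μM MCA-Pro-Leu-Gly-Leu-DPA-Ala-Arg-NH2 at 37 °C. Buffer was pH 7.5 Tricine with NaCl, CaCl2, zinc acetate and 2% final DMSO; fluorescence read at ex 328/em 393 nm over 60 min. Ki,app from steady-state rates fitted to competitive or Morrison tight-binding equations.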

T3 sequence (P08254 100-272 limits assumed): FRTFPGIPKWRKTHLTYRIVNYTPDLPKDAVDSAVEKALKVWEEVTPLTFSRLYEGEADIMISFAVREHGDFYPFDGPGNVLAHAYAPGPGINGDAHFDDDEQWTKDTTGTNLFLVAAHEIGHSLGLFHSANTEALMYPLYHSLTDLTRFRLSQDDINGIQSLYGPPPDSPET

`CNC(=O)[C@@H](NC(=O)[C@@H](CC(=O)O)n1ccc(-c2ccc(-c3ccc(C#N)cc3)cc2)c1)C(C)(C)C` [Example 5(c), 3(R)-[3-(4′-Cyanobiphenyl-4-yl)-1H-pyrrol-1-yl]-N-[2,2-dimethyl-1(S)-(methylcarbamoyl)propyl]succinamic Acid] gave a melting point of 142 to 144 °C. For the same molecule, in series [1], the AUC is 1220 ng·h/mL and the peak level (Cmax) was 410 ng/mL. For the same molecule, in series [2], the Ki came out at 0.049 nM. In addition, the Ki in series [3] is 305 nM. For the same molecule, the Ki in series [4] worked out at 1.5 nM.
